Test results taken from patent US20230211001A1, “Lysosomal Targeting Molecules Comprising Knottin Peptides And Related Compositions And Methods” (The Board of Trustees of the Leland Stanford Junior …, priority 2020, published 2023).
Non-standard residues stand in square brackets, D forms with d. Primed or numbered codes have the meaning given here. No end group written: not given here. Orn(N3)′ = its azide, alkyne or alkene has reacted where a group follows in round brackets; Orn(N3) = [N-]=[N+]=NCCC[C@H](N)C(=O)O; tri‑GalNAc‑DBCO = not defined here

Key:
[1] = compared to mannose-6-phosphate glycans; cited from earlier work
[2] = tested on: cation independent M6PR (CIM6PR); details: compared to mannose-6-phosphate glycans; cited from earlier work
[3] = biological target: αvβ3 integrin on HEPG2 cells (UniProt P06756); test: cell-based or functional assay
[4] = biological target: integrins that bind to PIP (total surface level on HEPG2 cells); test: cell-based or functional assay
HEPG2 cells = test: Antiproliferation assay (IncuCyte phase confluence); format: cell-based; details: for cell morphology: 100 nM, live imaging over 5 days following treatment; for antiproliferative phenotype after wash-out: 200 nM on day 0, washed on day 4, followed 6 d
Description: (§1) FIG. 13 Panel A: Synthesis of PIP—GaINAc. Tri-GaINAc-DBCO was conjugated to PIP, a knottin peptide that binds to multiple integrins. Panel B: Degradation of cell surface integrins in HEPG2 cells as determined by live-cell flow cytometry following 44 h of treatment with 100 nM PIP or PIP—GaINAc. Anti-αvβ3, anti-αvβ5 and PIP-Fc fusion construct were used for detection. PIP was genetically fused to the Fc domain of a mouse IgG2a to generate a PIP-Fc fusion construct that measures the surface expression of integrins recognized by PIP. Panel C: Percent proliferation of HEPG2 cells following 44 h of treatment with 50 nM, 100 nM or 200 nM PIP or PIP—GaINAc. Proliferation was quantified by phase confluence over time using IncuCyte. Panel D: Time course of percent proliferation of HEPG2 cells during 44 h of treatment with 200 nM PIP or PIP—GaINAc. Panel E: Percent proliferation of HEPG2 cells for 6 d following wash-out. Cells were treated with 200 nM PIP or PIP—GaINAc on day 0. PIP+ and PIP—GaINAc+ indicate the conditions where cells were washed on day 4 and replaced with fresh medium without treatment. PIP++ and PIP—GaINAc++ indicate the conditions where cells were washed on day 4 and replaced with fresh medium containing 200 nM PIP or PIP—GaINAc. Panel F: Live HEPG2 imaging by IncuCyte throughout the 5 d after treatment with 100 nM PIP or PIP—GaINAc. Images are representative of three independent experiments for F. Data in B-E represent three independent experiments, where B and C show the mean of three independent experiments ±s.e.m. P values were determined by unpaired two-tailed t-tests.
HEPG2 cells (100,000 cells per well in a 24-well plate) were treated with various concentrations of PIP or PIP—GaINAc. After treatments were added, cells were imaged every 4 h for the indicated times in the IncuCyte S3 Live-Cell Analysis system using the phase-imaging channel and a ×10 objective. For co-incubation experiments with ASF, 10 mg ml^−1 of ASF (Sigma-Aldrich) was treated with either PIP or PIP—GaINAc. The following analysis parameters were used to quantify phase confluence (%) in the Incucyte software: segmentation adjustment was set to 1, hole fill (μm2) was set to 300 and area minimum (μm^2) was set to 150. No other constraints were selected. Percent proliferation was then calculated by normalizing phase confluence values. Specifically, at any given timepoint n in the treatment time course (t=0→t=n), the change in confluence from t=0 to t=n (Δconfluence t=n) was calculated for each well as follows: Δconfluence t=n of well x=(confluence t=n of well x)−(confluence t=0 of well x), where x represents any given well in the experiment. This ensures that the value of each well is set to 0 at t=0. The average Δconfluence at the final time point of the untreated wells was set as the ‘max value’ (equivalent to 100% proliferation). Finally, data were normalized as follows:
% proliferationt=n=n of well x=(Δconfluencet=n of well x)/(max value),
where it is noted that while the metric is labeled as “% proliferation”, the effects quantitated are the summation of both cell proliferation and cell survival.

integrin αvβ5 = biological target: T1, integrin αvβ5 (Homo sapiens, UniProt P06756+P18084); test: Cell surface integrin levels by live-cell flow cytometry in HEPG2 cells, anti-αvβ5 detection; format: cell-based; details: 44 h, 100 nM
T1 construct: endogenous in cells; host or cells: HEPG2
Description: as §1, with “PIP++ and PIP—GaINAc++ indicate the conditions where cells were washed on day 4 and replaced with fresh medium containing 200 nM PIP or PIP—GaINAc. Panel F: Live HEPG2 imaging by IncuCyte throughout the 5 d after treatment with 100 nM PIP or PIP—GaINAc. Images are representative of three independent experiments for F. Data in B-E represent three independent experiments, where B and C show the mean of three independent experiments ±s.e.m.” left out
(§2) The surface levels of integrins were measured by flow cytometry following treatment in HEPG2 cells. […] Nonetheless, the total surface level of integrins that bind to PIP was determined by utilizing a PIP-Fc fusion for staining of the Fc fragment. […]

[5] = tested on: integrins that bind to PIP; test: Total surface level of integrins that bind to PIP, PIP-Fc fusion detection, HEPG2 cells; format: cell-based; details: 44 h, 100 nM, flow cytometry
Description: as §1, with “PIP++ and PIP—GaINAc++ indicate the conditions where cells were washed on day 4 and replaced with fresh medium containing 200 nM PIP or PIP—GaINAc. Panel F: Live HEPG2 imaging by IncuCyte throughout the 5 d after treatment with 100 nM PIP or PIP—GaINAc. Images are representative of three independent experiments for F. Data in B-E represent three independent experiments, where B and C show the mean of three independent experiments ±s.e.m.” left out
as §2

[6] = tested on: tumor-associated integrins; details: αvβ3, αvβ5, αvβ6 and α5β1 integrins; cited from earlier work
αvβ3 integrin = biological target: T2, αvβ3 integrin (Homo sapiens, UniProt P05106+P06756); test: Cell surface integrin levels by live-cell flow cytometry in HEPG2 cells, anti-αvβ3 detection; format: cell-based; details: 44 h, 100 nM
T2 construct: endogenous in cells; host or cells: HEPG2
Description: as §1, with “PIP++ and PIP—GaINAc++ indicate the conditions where cells were washed on day 4 and replaced with fresh medium containing 200 nM PIP or PIP—GaINAc. Panel F: Live HEPG2 imaging by IncuCyte throughout the 5 d after treatment with 100 nM PIP or PIP—GaINAc. Images are representative of three independent experiments for F. Data in B-E represent three independent experiments, where B and C show the mean of three independent experiments ±s.e.m.” left out
as §2

T1 sequence (P06756 31-889 limits assumed): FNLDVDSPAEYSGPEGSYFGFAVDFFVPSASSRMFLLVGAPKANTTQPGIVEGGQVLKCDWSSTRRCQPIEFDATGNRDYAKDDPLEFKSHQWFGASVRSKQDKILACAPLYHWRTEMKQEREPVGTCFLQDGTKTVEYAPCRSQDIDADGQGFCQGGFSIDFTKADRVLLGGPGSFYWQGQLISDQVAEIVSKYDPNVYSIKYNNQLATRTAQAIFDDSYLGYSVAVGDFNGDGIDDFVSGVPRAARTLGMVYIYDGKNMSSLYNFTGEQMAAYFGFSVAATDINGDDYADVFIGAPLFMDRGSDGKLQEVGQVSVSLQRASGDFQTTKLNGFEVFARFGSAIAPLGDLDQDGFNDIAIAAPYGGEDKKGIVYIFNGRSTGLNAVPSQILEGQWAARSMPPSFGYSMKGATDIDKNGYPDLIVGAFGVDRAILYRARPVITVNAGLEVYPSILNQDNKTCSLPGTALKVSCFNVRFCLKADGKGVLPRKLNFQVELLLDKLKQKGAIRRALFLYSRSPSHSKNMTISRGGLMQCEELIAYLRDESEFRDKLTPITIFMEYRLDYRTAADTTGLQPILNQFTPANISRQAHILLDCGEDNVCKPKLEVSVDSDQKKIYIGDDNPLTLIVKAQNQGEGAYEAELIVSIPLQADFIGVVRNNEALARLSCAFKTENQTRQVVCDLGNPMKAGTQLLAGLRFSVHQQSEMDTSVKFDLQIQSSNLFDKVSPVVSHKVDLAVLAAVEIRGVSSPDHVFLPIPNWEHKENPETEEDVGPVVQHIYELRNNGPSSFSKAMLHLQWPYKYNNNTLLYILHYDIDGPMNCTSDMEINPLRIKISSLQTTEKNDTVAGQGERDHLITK
T1 sequence (P06756 891-1048 partner limits assumed): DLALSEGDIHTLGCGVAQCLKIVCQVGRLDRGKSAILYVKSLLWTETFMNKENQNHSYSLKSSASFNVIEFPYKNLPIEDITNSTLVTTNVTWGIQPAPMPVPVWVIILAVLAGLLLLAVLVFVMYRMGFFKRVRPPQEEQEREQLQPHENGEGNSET
T1 sequence (P18084 24-799): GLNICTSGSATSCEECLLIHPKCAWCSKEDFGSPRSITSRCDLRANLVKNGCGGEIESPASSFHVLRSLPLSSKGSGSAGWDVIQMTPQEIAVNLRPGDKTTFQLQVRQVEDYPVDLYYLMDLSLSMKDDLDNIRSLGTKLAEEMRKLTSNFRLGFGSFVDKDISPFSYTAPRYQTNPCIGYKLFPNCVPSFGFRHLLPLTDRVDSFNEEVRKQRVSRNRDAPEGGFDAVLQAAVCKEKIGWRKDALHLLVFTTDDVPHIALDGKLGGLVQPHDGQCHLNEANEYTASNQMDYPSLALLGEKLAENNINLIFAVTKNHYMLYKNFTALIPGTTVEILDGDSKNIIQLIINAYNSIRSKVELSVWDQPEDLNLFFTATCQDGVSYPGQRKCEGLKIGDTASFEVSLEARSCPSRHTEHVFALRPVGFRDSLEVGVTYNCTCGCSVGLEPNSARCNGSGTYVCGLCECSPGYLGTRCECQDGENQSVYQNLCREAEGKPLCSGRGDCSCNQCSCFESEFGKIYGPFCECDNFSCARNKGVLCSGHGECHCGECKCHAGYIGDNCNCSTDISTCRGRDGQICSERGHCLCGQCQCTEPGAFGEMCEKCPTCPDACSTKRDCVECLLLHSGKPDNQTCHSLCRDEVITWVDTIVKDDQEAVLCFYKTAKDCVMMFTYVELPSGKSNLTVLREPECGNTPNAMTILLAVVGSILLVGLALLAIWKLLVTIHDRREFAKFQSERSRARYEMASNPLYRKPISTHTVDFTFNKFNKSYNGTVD
Sequence of αvβ3 integrin on HEPG2 cells (P06756 31-1048 limits assumed, chain 1 of 2): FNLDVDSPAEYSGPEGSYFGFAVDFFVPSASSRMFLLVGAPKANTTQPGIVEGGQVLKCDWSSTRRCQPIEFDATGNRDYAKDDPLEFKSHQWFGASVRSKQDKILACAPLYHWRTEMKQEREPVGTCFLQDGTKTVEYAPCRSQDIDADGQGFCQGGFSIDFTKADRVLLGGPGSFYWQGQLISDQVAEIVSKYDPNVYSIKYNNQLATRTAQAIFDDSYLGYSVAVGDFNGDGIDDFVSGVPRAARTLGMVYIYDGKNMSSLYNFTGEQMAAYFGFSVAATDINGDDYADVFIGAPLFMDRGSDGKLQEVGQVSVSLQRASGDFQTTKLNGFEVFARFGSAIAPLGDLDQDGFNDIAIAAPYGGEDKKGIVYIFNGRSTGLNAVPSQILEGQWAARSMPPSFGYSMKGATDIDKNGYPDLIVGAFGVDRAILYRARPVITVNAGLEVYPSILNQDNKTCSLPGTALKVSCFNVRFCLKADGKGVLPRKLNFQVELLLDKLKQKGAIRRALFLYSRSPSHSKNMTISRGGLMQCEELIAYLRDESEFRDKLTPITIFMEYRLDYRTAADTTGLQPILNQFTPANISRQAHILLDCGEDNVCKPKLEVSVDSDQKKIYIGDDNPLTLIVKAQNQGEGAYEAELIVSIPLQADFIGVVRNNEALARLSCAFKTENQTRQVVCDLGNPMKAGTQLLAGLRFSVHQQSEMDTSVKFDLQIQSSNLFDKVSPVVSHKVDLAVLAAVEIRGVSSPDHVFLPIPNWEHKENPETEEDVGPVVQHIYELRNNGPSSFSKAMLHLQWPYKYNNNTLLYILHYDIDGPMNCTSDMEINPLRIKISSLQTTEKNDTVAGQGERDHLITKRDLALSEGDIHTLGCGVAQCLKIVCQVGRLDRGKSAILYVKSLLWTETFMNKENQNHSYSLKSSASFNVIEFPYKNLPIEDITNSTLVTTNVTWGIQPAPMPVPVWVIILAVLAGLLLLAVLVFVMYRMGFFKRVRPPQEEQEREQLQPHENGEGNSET
Sequence of αvβ3 integrin on HEPG2 cells (P05106 27-788 limits assumed, chain 2 of 2, further chain): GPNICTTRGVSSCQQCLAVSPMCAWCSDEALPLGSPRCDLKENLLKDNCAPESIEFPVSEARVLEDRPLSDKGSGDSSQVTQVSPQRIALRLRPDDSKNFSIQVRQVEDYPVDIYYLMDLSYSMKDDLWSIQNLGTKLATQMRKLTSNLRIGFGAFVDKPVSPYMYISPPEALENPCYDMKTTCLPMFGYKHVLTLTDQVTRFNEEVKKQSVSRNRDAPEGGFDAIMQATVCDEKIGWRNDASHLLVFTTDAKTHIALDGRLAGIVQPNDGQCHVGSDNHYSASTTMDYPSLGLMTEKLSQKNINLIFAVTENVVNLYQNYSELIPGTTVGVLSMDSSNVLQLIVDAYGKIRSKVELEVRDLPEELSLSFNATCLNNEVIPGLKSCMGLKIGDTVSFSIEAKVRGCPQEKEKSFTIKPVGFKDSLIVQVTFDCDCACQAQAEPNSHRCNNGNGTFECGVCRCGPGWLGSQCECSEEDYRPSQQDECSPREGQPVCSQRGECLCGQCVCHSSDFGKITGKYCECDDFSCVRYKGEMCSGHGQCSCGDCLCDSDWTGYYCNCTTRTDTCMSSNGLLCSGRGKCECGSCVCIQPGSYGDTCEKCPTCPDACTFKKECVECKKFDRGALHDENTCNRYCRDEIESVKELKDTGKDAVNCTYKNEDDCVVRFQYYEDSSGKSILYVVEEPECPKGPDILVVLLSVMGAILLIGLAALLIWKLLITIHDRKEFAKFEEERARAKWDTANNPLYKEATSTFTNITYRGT
T2 sequence (P06756 31-889 limits assumed): as the sequence (P06756 31-889 limits assumed) above
T2 sequence (P06756 891-1048 partner limits assumed): as the sequence (P06756 891-1048 partner limits assumed) above
T2 sequence (P05106 27-788): as the sequence (P05106 27-788 limits assumed, chain 2 of 2, further chain) above

Row | Molecule | relative binding affinity for the CIM6PR [2] | depletion of total surface integrins that bind to PIP on HEPG2 cells, detected by PIP-Fc staining (flow cytometry) [4] [%] | cell morphology (HEPG2 cells) | antiproliferative phenotype after wash-out (HEPG2 cells) | effect on surface expression of integrin αvβ5 (integrin αvβ5) | integrins depleted (detection of PIP-Fc) [5] | also measured
1 | C=CC(=O)OC[C@@H](O)[C@@H](O)[C@H](O)[C@H](O)C=O [mannose-6-acrylate glycans, mannose-6-acrylate] | 0.7 | – | – | – | – | – | serum stability [1]: better serum stability
2 | PIP-GalNAc (PIP conjugated to a single tri-GalNAc-DBCO moiety) (peptide) | – | 60 | – | – | – | – | cell surface αvβ3 integrin level on HEPG2 cells, live-cell flow cytometry after 44 h of treatment with 100 nM [3]: 3 fold
3 | PIP: polyspecific integrin-binding knottin peptide, 33-mer (SEQ ID NO:42); 5-azido-L-norvaline at position 15, tyrosine at position 31 (GCPRPRGDNPPLTC[Orn(N3)]QDSDCLAGCVCGPNGYCG; disulfide (positions not given here); not fully specified (bridges); also: further groups not given here) | – | – | epithelial-like clusters | wash-out rescued proliferation | increased the expression | 40% | binding affinity to tumor-associated integrins [6]: high affinity
4 | PIP—GaINAc: PIP knottin with azido-norvaline site-specifically conjugated via a single tri-GaINAc-DBCO moiety (GCPRPRGDNPPLTC[Orn(N3)′](tri‑GalNAc‑DBCO)QDSDCLAGCVCGPNGYCG; disulfide (positions not given here); not fully specified (bridges); reading uncertain; also: further groups not given here) | – | – | formed smaller, circular clusters | persisted after conjugate wash-out | modest degradation | about 60% | antiproliferative effect on co-incubation with asialofetuin (ASF), inhibitor of ASGPR (HEPG2 cells; 10 mg ml^−1 ASF): ablated the enhanced antiproliferative effect; inhibition of proliferation (HEPG2 cells; various concentrations (50, 100, 200 nM) and durations of treatment up to 44 h): substantially more effective at inhibiting proliferation than PIP; depletion of cell surface αvβ3 integrin levels relative to PIP treatment alone (αvβ3 integrin): threefold
5 | mannose-6-carboxylate [mannose-6-carboxylate glycans] | 0.3 | – | – | – | – | – | –
6 | polyspecific integrin-binding knottin peptide (PIP), synthesized with 5-azido-L-norvaline at position 15 and tyrosine at position 31 | – | 40 | – | – | – | – | –
